Laboratory results published in patent publication US20050267133A1, “Pyrazolopyrimidines as kinase inhibitors” (priority 2002, published 2005).

Columns and labels:
[1] = biological target: T1, GST-TIE2 (intracellular domains of human TIE2) (Homo sapiens, UniProt Q02763); test: TIE-2 Enzyme Assay (TIE2-E), LANCE method; format: biochemical; conditions: preactivated GST-TIE2, 1 μM D1-15 peptide, 80 uM ATP, 30 mins at room temperature; pIC50 = -log IC50 in Molar
T1 construct: made in house
Description: The TIE-2 enzyme assay used the LANCE method (Wallac) and GST-TIE2, baculovirus expressed recombinant constructs of the intracellular domains of human TIE2 (amino acids 762-1104, GenBank Accession # L06139) tagged by GST). The method measured the ability of the purified enzymes to catalyse the transfer of the γ-phosphate from ATP onto tyrosine residues in a biotinylated synthetic peptide, D1-15 (biotin-C6-LEARLVAYEGWVAGKKKamide). This peptide phosphorylation was detected using the following procedure: for enzyme preactivation, GST-TIE2 was incubated for 30 mins at room temperature with 2 mM ATP, 5 mM MgCl2 and 12.5 mM DTT in 22.5 mM HEPES buffer (pH7.4). Preactivated GST-TIE2 was incubated for 30 mins at room temperature in 96 well plates with 1 μM D1-15 peptide, 80 uM ATP, 10 mM MgCl2, 0.1 mg/ml BSA and the test compound (diluted from a 10 mM stock in DMSO, final DMSO concentration was 2.4%) in 1 mM HEPES (pH7.4). The reaction was stopped by the addition of EDTA (final concentration 45 mM). Streptavidin linked-APC (allophycocyanin, Molecular Probe) and Europium-labeled anti-phosphorylated tyrosine antibody (Wallac) were then added at the final concentration of 17 μg/well and 2.1 μg/well, respectively. The APC signal was measured using an ARVO multilabel counter. (Wallac Berthold Japan). The percent inhibition of activity was calculated relative to blank control wells.
The concentration of test compound that inhibits 50% of activity (IC50) was interpolated using nonlinear regression (Levernberg-Marquardt) and the equation, y=Vmax (1−x/(K+x))+Y2, where “K” was equal to the IC50. The IC50 values were converted to pIC50 values, i.e., −log IC50 in Molar concentration.
Test compounds are employed in free or salt form.

GSK-3β = GSK-3β (Homo sapiens, UniProt P49841); test: GSK3 scintillation proximity assay (SPA) kinase assay; format: biochemical; conditions: 20 nM kinase, 2.5 uM ATP, biotinylated glycogen synthase peptide, 40 minutes at room temperature; -log IC50 in Molar; read-out: GSK-3 pIC50 (converted)
Chain of GSK-3β (P49841 whole entry, species assumed): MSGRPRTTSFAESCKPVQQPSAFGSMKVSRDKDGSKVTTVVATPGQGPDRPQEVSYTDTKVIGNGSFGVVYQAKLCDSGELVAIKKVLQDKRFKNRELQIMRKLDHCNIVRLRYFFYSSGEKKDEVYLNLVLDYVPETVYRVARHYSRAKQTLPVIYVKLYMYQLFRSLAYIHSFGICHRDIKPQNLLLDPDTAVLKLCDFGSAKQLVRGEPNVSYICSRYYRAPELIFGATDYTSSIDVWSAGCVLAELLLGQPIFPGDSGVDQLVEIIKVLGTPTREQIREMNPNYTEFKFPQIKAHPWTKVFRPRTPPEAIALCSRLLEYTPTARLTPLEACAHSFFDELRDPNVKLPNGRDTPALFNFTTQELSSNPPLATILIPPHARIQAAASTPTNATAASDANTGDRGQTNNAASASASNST
Description: The phosphorylated biotinylated peptide is then captured onto streptavidin coated scintillation proximity assay (SPA) beads from Amersham Technology, where the signal from the ^33P is amplified via the scintillant contained in the beads.
GSK-3β is commercially available or may be cloned and expressed in E. coli using standard techniques to produce soluble, active protein. The production of active protein involves purification in two steps using Metal Chelate and Ion Exchange Chromatography. Protein eluting from Ion Exchange provides >90% pure product that may then be concentrated for use in high throughput screening.
The kinase was assayed at a concentration of 20 nM final in 100 mM HEPES, pH 7.2 containing 10 mM magnesium chloride, 0.1 mg/mL bovine serum albumin, 1 mM dithiothreitol, 0.3 mg/mL heparin, 2.8 uM peptide substrate, 2.5 uM ATP, and 0.2 uCi/well [[…]-^33P]-ATP. After 40 minutes incubation at room temperature, the reaction was stopped by addition of 100 mM EDTA and […] in 100 mM HEPES, pH7.2 followed by an additional solution of diluted Streptavidin coated SPA beads in PBS, pH 7.2 to give a final concentration of 0.25 mg of beads per assay well in a 96-well microtiter plate.
10 mM stock solutions of the compounds of the invention in 100% DMSO are generated as a first step in the screening process. The second step involves the creation of dose response plates where these compounds are diluted 10-fold in 100% DMSO to 1 mM concentrations and subsequently serially diluted 3-fold in 100% DMSO across the plate by automated liquid handling such that the final top concentration of inhibitor is 0.033 mM in the 30 uL kinase assay. The third step involves the creation of the assay plates. This is achieved by transferring 1 uL of the compounds to assay plates by automated liquid handling. The fourth step is to perform the assay as described and count the resulting plates in the Packard TopCount NXT microplate scintillation and luminescence counter.
The final step is data acquisition and analysis where IC50 values are generated for each compound by normalizing curve data to the equation 100*(U1−C2)/(C1−C2) (where U1 is the cpm value, C2 is the background, and C1 is the maximum number of counts), then fitting the normalized data to the equation y=Vmax*(1−(x/(K+x))). The IC50 values were converted to pIC50 values, i.e., −log IC50 in Molar concentration. The data is expressed below in Table 1.

T1 sequence (Q02763 762-1104): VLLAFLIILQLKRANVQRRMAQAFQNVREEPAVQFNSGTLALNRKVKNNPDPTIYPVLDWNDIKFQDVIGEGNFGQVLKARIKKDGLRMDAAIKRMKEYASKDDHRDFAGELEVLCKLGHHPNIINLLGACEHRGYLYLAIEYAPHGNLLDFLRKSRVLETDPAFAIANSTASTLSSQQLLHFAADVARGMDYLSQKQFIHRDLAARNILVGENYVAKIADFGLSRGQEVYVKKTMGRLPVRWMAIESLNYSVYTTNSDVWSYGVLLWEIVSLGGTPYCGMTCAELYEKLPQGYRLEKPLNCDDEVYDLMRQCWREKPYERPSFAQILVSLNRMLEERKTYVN

Row | SMILES | IC50 [1] [µM] | IC50 (GSK-3β) [µM]
1 | OCCOc1ccc(/C=N/Nc2ncnc3c2cnn3-c2ccccc2)cc1 [Example 53, 4-(2-Hydroxyethoxy)benzaldehyde [1-(phenyl)-1H-pyrazolo[3,4-d]pyrimidin-4-yl]hydrazone] | 1 to 10 | 0.1 to 1
2 | CCOc1cc(/C=N/Nc2ncnc3c2cnn3-c2ccccc2)ccc1O [Example 49, 3-Ethoxy-4-hydroxy-benzaldehyde (1-phenyl-1H-pyrazolo[3,4-d]pyrimidin-4-yl)hydrazone] | 1 to 10 | 1 to 10
3 | C(=NNc1ncnc2c1cnn2-c1ccccc1)c1cccnc1 [Example 2, Nicotinaldehyde (1-phenyl-1H-pyrazolo[3,4-d]pyrimidin-4-yl)hydrazone] | 1 to 10 | < 0.1
4 | COc1ccc(/C=N/Nc2ncnc3c2cnn3-c2ccccc2)cc1OC [Example 56, 3,4-Dimethoxybenzaldehyde [1-(phenyl)-1H-pyrazolo[3,4-d]pyrimidin-4-yl]hydrazone] | 0.1 to 1 | 0.1 to 1

Second part, the molecule after the results:

Row | IC50 [1] [µM] | IC50 (GSK-3β) [µM] | SMILES
5 | 0.1 to 1 | 0.1 to 1 | CC(=O)Nc1ccc(/C=N/Nc2ncnc3c2cnn3-c2ccccc2)cc1 [Example 52, 4-Acetamidobenzaldehyde [1-(phenyl)-1H-pyrazolo[3,4-d]pyrimidin-4-yl]hydrazone]
6 | 0.1 to 1 | 0.1 to 1 | COc1ccc(/C=N/Nc2ncnc3c2cnn3-c2ccccc2)cc1O [Example 45, 3-Hydroxy-4-methoxybenzaldehyde (1-phenyl-1H-pyrazolo[3,4-d]pyrimidin-4-yl)hydrazone]
7 | 0.1 to 1 | < 0.1 | CS(=O)(=O)CCNC(=O)c1ccc(/C=N/Nc2ncnc3c2cnn3-c2ccccc2)cc1 [Example 38, N-[2-(Methylsulfonyl)ethyl]-4-{(E)-[(1-phenyl-1H-pyrazolo[3,4-d]pyrimidin-4-yl)hydrazono]methyl}benzamide]
